Data as given in patent publication US20030050305A1, “Thromboxane inhibitors, compositions and methods of use” (priority 2000, published 2003).
Values belong to the compound of their own block, whether it stands above or below them.

Assays:
[1] = system: Human corpus cavernosum tissue; test: Relaxation of human corpus cavernosum tissue strips contracted with phenylephrine (organ chamber); conditions: for Relative potency in relaxing human corpus cavernosum tissue (FIG. 1B): after treatment with 0.02 μM SQ 29548; for Relaxation response in tissue from diabetic compared to non-diabetic patients (FIG. 4A, 4B): increasing concentrations of the prostaglandin alone
Description: (§1) Human corpus cavernosum specimens were obtained from impotent men at the time of penile prosthesis insertion. Tissues were maintained at 4-6° C. in M-400 solution, pH 7.4 (composition per 100 ml: mannitol, 4.19 g; KH2PO4, 0.205 g; K2HPO4.3H2O, 0.97 g; KCl, 0.112 g; NaHCO3, 0.084 g) until used. Corpus cavernosum tissues were typically used between 2 and 16 hours from extraction.
(§2) Measurement of the relaxation of corpus cavemosal tissue was carried out as follows. Corpus cavernosal tissue strips (3×3×7 mm) were immersed in a 8 ml organ chamber containing physiological salt solution, maintained at 37° C. and aerated with 5% CO2/95% air, pH 7.4. The tissues were then contracted with phenylephrine (1 μM) and the relaxation response was evaluated after the cumulative addition of the compound to the organ chamber.
(§3) In experiments where the effect of the thromboxane A2 receptor antagonist, SQ 29548 , was measured, […] was added 20 minutes before the addition of phenylephrine. In experiments where the effect of the thromboxane A2 agonist, U 46619 was measured, U 46619 was added after the phenylephrine-induced contractions stabilized, and then prostaglandin PGE1 was added 10 minutes later, if required.
The data are expressed as mean i standard error of the percentage of total relaxation induced by 100 μM papaverine hydrochloride. Statistical analysis were conducted using a two-factor ANOVA statistical analysis using StatView software for Apple computers.

[2] = system: Human corpus cavernosum resistance arteries (helicine arteries); test: Relaxation of human corpus cavernosum resistance arteries contracted with norepinephrine (myograph); conditions: SQ 29548 0.02 μM; increasing concentrations of acetylcholine; contracted with 1 μM norepinephrine; P<0.01
Description: Human corpus cavernosum tissues were prepared according to Example 1. Penile small arteries, helicine arteries (lumen diameter 150-400 μ), which are the terminal branches of deep penile arteries, were dissected by carefully removing the adhering trabecular tissue. Arterial ring segments (2 mm long) were subsequently mounted on two 40 μm wires on microvascular double Halpern-Mulvany myographs (J. P. Trading, Aarhus, Denmark) for isometric tension recordings.
Measurement of the relaxation of corpus cavernosal resistant arteries was carried out as follows. […]
The segments were then exposed to 125 mM K^+ (physiological salt solution potassium salt form, by the equimolar substitution of […] in physiological salt solution) and the contraction response was measured. The arteries were contracted with 1 μM norepinephrine and relaxation responses were evaluated by cumulative additions of the acetylcholine (1 nM to 3 μ) to the organ chamber. The segments were washed with fress physiological salt solution, treated with the thromboxane inhibitor SQ 29548 (0.02 μM) and the response to acetylcholine measured again.

[3] = system: Human corpus cavernosum tissue; test: Contractile response of human corpus cavernosum tissue from diabetic and non-diabetic patients to U 46619; conditions: tissue from diabetic vs non-diabetic patients; P<0.01
Description: as §1, §2, §3
The tissues were prepared according to Example 1. […]

[4] = contracted with 1 μM phenylephrine

Structure (SMILES): CCCCC[C@H](O)CC[C@H]1[C@H](O)CC(=O)[C@@H]1CCCCCCC(=O)O [PGE0]
Relative potency in relaxing human corpus cavernosum tissue (FIG. 1B) [1, 4]: equipotent | Response of the tissue to increasing concentrations of the prostaglandin alone (FIG. 1A) ([1]; higher concentrations of PGE0, absence of SQ 29548, contracted with 1 μM phenylephrine): significant contraction of the tissue | Relaxation response in tissue from hypertensive compared to non-hypertensive patients (FIG. 7) ([1]; increasing concentrations of PGE0, contracted with 1 μM phenylephrine, P<0.01): significant reduction in the relaxation of the tissue from hypertensive patients | Relaxation response in tissue from diabetic compared to non-diabetic patients (FIG. 4A, 4B) [1, 4]: significant reduction in the relaxation of the tissue from diabetic patients

Structure (SMILES): CCCCC[C@H](O)/C=C/[C@H]1[C@H](O)CC(=O)[C@@H]1CCCCCCC(=O)O [PGE1, alprostadil]
Relative potency in relaxing human corpus cavernosum tissue (FIG. 1B) [1, 4]: equipotent | Relaxation response in tissue from diabetic compared to non-diabetic patients (FIG. 4A, 4B) [1, 4]: no difference in the relaxation response

Effect of the thromboxane A2 receptor antagonist on the relaxation induced by PGE0 (FIG. 2) ([1]; SQ 29548 0.02 μM, added 20 minutes before phenylephrine, increasing concentrations of PGE0, P<0.01): significant relaxation of the tissue | Effect of the thromboxane A2 receptor antagonist on the relaxation induced by acetylcholine (FIG. 8) [2]: significant relaxation of the tissue
Structure (SMILES): O=C(O)CCC/C=C\C[C@@H]1[C@H](CNNC(=O)Nc2ccccc2)[C@H]2CC[C@@H]1O2 [SQ 29548]
Effect on the reduced relaxation to PGE0 of tissue from diabetic patients (FIG. 5) ([1]; addition of 0.02 μM SQ 29548, diabetic vs non-diabetic tissue): This reduction in the relaxation of the tissue was eliminated

Effect of the thromboxane A2 receptor agonist on the relaxation induced by PGE1 (FIG. 3) ([1]; U 46619 0.003 μM, increasing concentrations of prostaglandin, P<0.01): significant contraction of the tissue
Structure (SMILES): CCCCC[C@H](O)/C=C/[C@@H]1[C@@H](C/C=C\CCCC(=O)O)[C@H]2CO[C@@H]1C2 [U 46619]
Contraction response induced by increasing concentrations of the thromboxane agonist (FIG. 6) [3]: significant contraction of the tissue obtained from diabetic patients
